molecular target: T1, human NAPE-PLD (Homo sapiens, UniProt Q6IQ20); test: In vitro NAPE-PLD activity assay; format: biochemical; conditions: membrane protein fraction of HEK293T cells overexpressing human NAPE-PLD; substrate PED6 1 µM; 30 minutes preincubation at 37 °C
T1 construct: Full length human cDNA NAPE-PLD was obtained from Natsuo Ueda; made in house; host or cells: HEK293T cells, transient transfection (pcDNA3.1); membrane fraction used
Protocol: Full length human cDNA NAPE-PLD was obtained from Natsuo Ueda^1 and cloned into mammalian expression vector pcDNA3.1, containing a C-terminal Flag-tag and genes for ampicillin and neomycin resistance. All plasmids were grown in XL-10 Z-competent cells and prepped (Maxi Prep, Qiagen). Sequence analysis for the confirmation of the sequences was performed at the Leiden Genome Technology Centre.
HEK293T were cultured at 37 °C and 7% CO2 in DMEM (Sigma Aldrich, D6546) with glutamax, penicillin (100 µg/ml), streptomycin (100 µg/ml) and 10% New Born Calf Serum iron supplemented (Hyclone SH30072.03). Cells were passaged twice a week to appropriate confluence.
24 hours before transfection 10^7 cells are seeded on a 15 cm dish. Two hours before transfection medium is refreshed, low volume. Transfection is performed with PEI in a ratio of 3:1 with human NAPE-PLD or Mock pcDNA3.1 Neo, 20 µg per dish. Medium is refreshed after 24 hours and cells are harvested after 72 hours.
Cell pellets are re-suspended in lysis buffer: 20 mM Hepes, 2 mM DTT, 0.25 M sucrose, 1 mM MgCl2, 2.5 U/ml benzonase and incubated 30 minutes on ice. The cytosolic fraction (supernatant) is separated from the membranes by ultra-centrifugation (32000 rpm for 30 minutes 100,000g). The pellet is resuspended in storage buffer: 20 mM Hepes, 2 mM DTT (membrane fraction). All samples are stored at -80°C. Enzyme concentrations are determined using a Bradford assay.
The NAPE-PLD activity assay is based on a previously reported method with small alterations.^2 The membrane protein fraction from transient overexpression of human NAPE-PLD in HEK293T cells was diluted to 0.4 mg/ml in assay buffer: 50 mM Tris-HCl (pH 7.5), 0.02% Triton X-100, 150 mM NaCl. The substrate PED6 (Invitrogen) 1 mM stock was consecutively diluted in DMSO (10x) and in assay buffer (10x) to make a 10 µM working solution. […] The assay is performed in a dark Greiner 96 wells plate, end volume 100 µl. The compound or DMSO is incubated with membrane protein lysate (final concentration 0.04 mg/ml) for 30 minutes at 37 °C. […] Mock lysate with DMSO is used for background substraction. IC50 curves are generated used Graphpad Prism v6.

T1 sequence (Q6IQ20 whole entry): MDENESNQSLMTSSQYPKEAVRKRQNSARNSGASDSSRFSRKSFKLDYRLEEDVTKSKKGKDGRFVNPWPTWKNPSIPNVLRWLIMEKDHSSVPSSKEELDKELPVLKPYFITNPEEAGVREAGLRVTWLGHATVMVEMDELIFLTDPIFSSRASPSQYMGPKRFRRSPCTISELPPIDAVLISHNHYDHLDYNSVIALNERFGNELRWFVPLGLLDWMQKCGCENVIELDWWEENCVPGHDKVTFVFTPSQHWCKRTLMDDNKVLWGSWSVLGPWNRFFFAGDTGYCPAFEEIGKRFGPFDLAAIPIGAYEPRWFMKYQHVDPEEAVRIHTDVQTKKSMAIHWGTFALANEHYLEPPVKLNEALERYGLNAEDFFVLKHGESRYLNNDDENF

IC50 [nM]	SMILES
1000	O=C(NCC1CC1)c1cc(N2CCOCC2)nc(N2CCN(Cc3ccccc3)C(c3ccccc3)C2)n1 (stereo not drawn) [Example 35, 2-(4-benzyl-3-phenylpiperazin-1-yl)-N-(cyclopropylmethyl)-6-morpholinopyrimidine-4-carboxamide]
912	C#CCNC(=O)c1cc(N2CCOCC2)nc(N(C)CCc2ccccc2)n1 [Example 8, 2-(methyl(phenethyl)amino)-6-morpholino-N-(prop-2-yn-1-yl)pyrimidine-4-carboxamide]
224	CN(CCc1ccccc1)c1nc(C(=O)NCC2CC2)cc(N2CCC(O)C2)n1 (stereo not drawn) [Example 32, N-(cyclopropylmethyl)-6-(3-hydroxypyrrolidin-1-yl)-2-(methyl(phenethyl)amino)pyrimidine-4-carboxamide]
11500	CN(CCc1ccncc1)c1nc(C(=O)NCC2CC2)cc(N2CCOCC2)n1 [Example 81, N-(cyclopropylmethyl)-2-(methyl(2-(pyridin-4-yl)ethyl)amino)-6-morpholinopyrimidine-4-carboxamide]
427	CN(CCc1ccccc1)c1nc(C(=O)NCC2CC2)cc(N2CCC2)n1 [Example 25, N-(cyclopropylmethyl)-2-(methyl(phenethyl)amino)-6-(azetidin-1-yl)pyrimidine-4-carboxamide]
1820	CCCNC(=O)c1cc(N2CCOCC2)nc(N(C)CCc2ccccc2)n1 [Example 14, N-propyl-2-(methyl (phenethyl)amino)-6-morpholino-pyrimidine-4-carboxamide]
1450	CN(CCc1ccccc1)c1cc(C(=O)NCC2CC2)cc(N2CCOCC2)n1 [Example 75, N-(cyclopropylmethyl)-2-(methyl(phenethyl)amino)-6-morpholino isonicotinamide]
12900	CN(CCc1ccccn1)c1nc(C(=O)NCC2CC2)cc(N2CCOCC2)n1 [Example 84, N-(cyclopropylmethyl)-2-(methyl(2-(pyridin-2-yl)ethyl)amino)-6-morpholinopyrimidine-4-carboxamide]
2570	COc1ccc(CC2CCCCN2c2nc(C(=O)NCC3CC3)cc(N3CCOCC3)n2)cc1 (stereo not drawn) [Example 73, N-(cyclopropylmethyl)-2-(2-(4-methoxybenzyl)piperidin-1-yl)-6-morpholinopyrimidine-4-carboxamide]
7760	O=C(NCC1CC1)c1cc(N2CCOCC2)nc(N2CCNC(c3ccccc3)C2)n1 (stereo not drawn) [Example 82, N-(cyclopropylmethyl)-6-morpholino-2-(3-phenylpiperazin-1-yl)pyrimidine-4-carboxamide]
6760	CCCCNC(=O)c1cc(N2CCOCC2)nc(N(C)CCc2ccccc2)n1 [Example 9, N-butyl-2-(methyl (phenethyl)amino)-6-morpholinopyrimidine-4-carboxamide]
2450	CN(CCc1cccc(Cl)c1)c1nc(C(=O)NCC2CC2)cc(N2CCOCC2)n1 [Example 66, 2-((3-chlorophenethyl)(methyl)amino)-N-(cyclopropylmethyl)-6-morpholinopyrimidine-4-carboxamide]
302	CN(CCc1ccccc1)c1nc(C(=O)NCC2CC2)cc(N2CC[C@@H](O)C2)n1 [Example 38, (R)-N-(cyclopropylmethyl)-6-(3-hydroxypyrrolidin-1-yl)-2-(methyl(phenethyl)amino)pyrimidine-4-carboxamide]
8910	CN(CCc1ccccc1)c1nc(C(=O)NCC2CC2)cc(N2CCC(F)(F)CC2)n1 [Example 2, N-(cyclopropylmethyl)-6-(4,4-difluoropiperidin-1-yl)-2-(methyl(phenethyl)amino)pyrimidine-4-carboxamide]
646	CN(CCc1ccccc1)c1nc(C(=O)NCC2CC2)cc(N2CCCCC2)n1 [Example 3, N-(cyclopropylmethyl)-2-(methyl(phenethyl)amino)-6-(piperidin-1-yl)pyrimidine-4-carboxamide]
708	CN(CCc1ccccc1)c1nc(C(=O)NCC2CC2)cc(N2CCOCC2)n1 [Example 49, N-(cyclopropylmethyl)-2-(methyl(phenethyl)amino)-6-morpholinopyrimidine-4-carboxamide]
1200	CC(=O)N1CCN(c2cc(C(=O)NCC3CC3)nc(N(C)CCc3ccccc3)n2)CC1 [Example 12, 6-(4-acetylpiperazin-1-yl)-N-(cyclopropylmethyl)-2-(methyl(phenethyl)amino)pyrimidine-4-carboxamide]
977	CN(CCc1ccccc1Cl)c1nc(C(=O)NCC2CC2)cc(N2CCOCC2)n1 [Example 68, 2-((2-chlorophenethyl)(methyl)amino)-N-(cyclopropylmethyl)-6-morpholinopyrimidine-4-carboxamide]
